The values below are quoted from earlier work in US9625464B2, “Fluorescent probe for plasma cell identification and isolation, and plasma cell identification or isolation method using the probe” (NATIONAL UNIVERSITY CORPORATION UNIVERSITY OF TOYAMA, priority 2010, dated 2017).

The data set has as its target ATP-sensitive K+ channel. The following applies: read-out: dissociation constant to ATP-sensitive K+ channel.

For `COc1ccc(Cl)cc1C(=O)NCCc1ccc(S(=O)(=O)NC(=O)NC2CCCCC2)cc1` [glibenclamide], the Kd is 0.1 to 3.6 nM.
